Test results as given in PubChem BioAssay AID330 (DTP/NCI, 2004).
“And” between values parts separate entries of the source, which are not always exact repeats. Identical values can stand only once. Inconclusive results and toxic doses are left out. The calls were made as follows: active = survival T/C of 150% or more; inactive = T/C below 125% in these data.

System: P388 leukemia ip, CD2F1 mice, survival T/C
Assay: NCI In Vivo Anticancer Drug Screen. Data for tumor model P388 Leukemia (intraperitoneal) in CD2F1 (CDF1) mice
Details: endpoint: median survival time, higher = longer survival
In short: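 Mice carrying the transplanted tumor received test compound or vehicle. Survival was recorded in each group, and the value is the treated-group measurement divided by that of the vehicle-treated control group.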

[1] = dose: 6.25 mg/kg/injection, schedule: Q01DX009 (ip), vehicle: saline with Tween-80
[2] = dose: 25.0 mg/kg/injection, schedule: Q01DX009 (ip), vehicle: saline with Tween-80
[3] = dose: 50.0 mg/kg/injection, schedule: Q01DX009 (ip), vehicle: saline with Tween-80
[4] = dose: 100.0 mg/kg/injection, schedule: Q01DX009 (ip), vehicle: saline with Tween-80
[5] = dose: 100.0 mg/kg/injection, schedule: Q04DX003 (ip), vehicle: saline with Tween-80
[6] = dose: 50.0 mg/kg/injection, schedule: Q01DX005 (ip), vehicle: saline with Tween-80
[7] = dose: 100.0 mg/kg/injection, schedule: Q01DX005 (ip), vehicle: saline with Tween-80
[8] = dose: 200.0 mg/kg/injection, schedule: Q01DX005 (ip), vehicle: saline with Tween-80
[9] = dose: 60.0 mg/kg/injection, schedule: Q01DX005 (ip), vehicle: Klucel (hydroxypropylcellulose) (HPC)
[10] = dose: 120.0 mg/kg/injection, schedule: Q01DX005 (ip), vehicle: Klucel (hydroxypropylcellulose) (HPC)
[11] = dose: 12.5 mg/kg/injection, schedule: Q01DX009 (ip), vehicle: saline with Tween-80
[12] = dose: 50.0 mg/kg/injection, schedule: Q01DX005 (ip), vehicle: Klucel (hydroxypropylcellulose) (HPC)
[13] = dose: 100.0 mg/kg/injection, schedule: Q01DX005 (ip), vehicle: Klucel (hydroxypropylcellulose) (HPC)
[14] = dose: 200.0 mg/kg/injection, schedule: Q01DX005 (ip), vehicle: Klucel (hydroxypropylcellulose) (HPC)
[15] = dose: 6.25 mg/kg/injection, schedule: Q01DX005 (ip), vehicle: Klucel (hydroxypropylcellulose) (HPC)
[16] = dose: 12.5 mg/kg/injection, schedule: Q01DX005 (ip), vehicle: Klucel (hydroxypropylcellulose) (HPC)
[17] = dose: 50.0 mg/kg/injection, schedule: Q01DX009 (ip), vehicle: saline
[18] = dose: 50.0 mg/kg/injection, schedule: Q04DX002 (ip), vehicle: saline with Tween-80
[19] = dose: 100.0 mg/kg/injection, schedule: Q04DX002 (ip), vehicle: saline with Tween-80
[20] = dose: 200.0 mg/kg/injection, schedule: Q04DX002 (ip), vehicle: saline with Tween-80

Measured: T/C

O=C1c2ccccc2C(=O)N1CC[P+](c1ccccc1)(c1ccccc1)c1ccccc1
inactive: dose: 0.78 mg/kg/injection, schedule: Q01DX009 (ip), vehicle: water 87 % of control | dose: 1.56 mg/kg/injection, schedule: Q01DX009 (ip), vehicle: water 112 % of control and 103 % of control and 115 % of control | dose: 3.13 mg/kg/injection, schedule: Q01DX009 (ip), vehicle: saline with Tween-80 121 % of control | dose: 3.13 mg/kg/injection, schedule: Q01DX009 (ip), vehicle: water 123 % of control and 118 % of control and 120 % of control | [1] 88 % of control | dose: 12.5 mg/kg/injection, schedule: Q01DX009 (ip), vehicle: water 123 % of control and 105 % of control | dose: 18.8 mg/kg/injection, schedule: Q01DX009 (ip), vehicle: water 93 % of control | [2] 123 % of control | dose: 25.0 mg/kg/injection, schedule: Q01DX009 (ip), vehicle: water 98 % of control

CCC[CH2][Sn]1([CH2]CCC)[O]CCN2CCN(CC[O]1)CC2
inactive: dose: 3.75 mg/kg/injection, schedule: Q01DX005 (ip), vehicle: saline with Tween-80 102 % of control | dose: 7.5 mg/kg/injection, schedule: Q01DX005 (ip), vehicle: saline with Tween-80 100 % of control | dose: 15.0 mg/kg/injection, schedule: Q01DX005 (ip), vehicle: saline with Tween-80 100 % of control

S=c1nn[nH]n1-c1ccccc1
inactive: dose: 25.0 mg/kg/injection, schedule: Q04DX003 (ip), vehicle: saline with Tween-80 100 % of control | [3] 110 % of control | dose: 50.0 mg/kg/injection, schedule: Q04DX003 (ip), vehicle: saline with Tween-80 100 % of control | [4] 110 % of control | [5] 100 % of control and 91 % of control

O=C(Nc1ccc(CCC2=NCCCN2)cc1)c1ccc(C(=O)Nc2ccc(CCC3=NCCCN3)cc2)cc1
inactive: dose: 25.0 mg/kg/injection, schedule: Q01DX005 (ip), vehicle: saline with Tween-80 115 % of control | [6] 113 % of control

COc1cc2c(O)cc(C(=O)O)c(-c3cc(OC)c(OC)c(OC)c3)c2cc1OC
inactive: [6] 98 % of control | [7] 103 % of control | [8] 100 % of control

CN(Cc1cnc2nc(N)[nH]c(=O)c2c1)c1ccc(C(=O)NC(CCC(=O)O)C(=O)O)cc1 (stereo unspecified)
inactive: [6] 98 % of control | [7] 100 % of control | [8] 111 % of control

COC(=O)N1[C@@H]2C=CC=CC=C2[C@@H](OC)N1C(=O)OC
inactive: [6] 101 % of control | [7] 103 % of control | [8] 103 % of control

Cc1cccc(N=NC2Sc3nc4ccccc4n3C2=O)c1 (stereo unspecified)
inactive: [9] 89 % of control | [10] 91 % of control

Oc1cc2c(cc1O)C(c1ccccc1)CNCC2 (stereo unspecified)
inactive: [2] 103 % of control | [3] 97 % of control | [4] 104 % of control

O=C(O)C1CSC(c2ccccc2)N1 (stereo unspecified)
inactive: [11] 100 % of control and 101 % of control | [2] 102 % of control and 103 % of control | [3] 100 % of control | [4] 100 % of control

COc1ccccc1C(Nc1ccc([N+](=O)[O-])cc1)P(=O)(Oc1ccccc1)Oc1ccccc1 (stereo unspecified)
inactive: [12] 95 % of control | [13] 106 % of control | [14] 95 % of control

Cn1nc2c(cc1=O)Cc1ccccc1-2
inactive: [6] 103 % of control | [7] 98 % of control | [8] 101 % of control

COc1cc2c(cc1OC)[C@@H]1C(=O)c3ccc4c(c3O[C@@H]1CO2)C[C@H](C(C)C)O4
inactive: [15] 109 % of control | [16] 121 % of control and 123 % of control and 124 % of control | dose: 25.0 mg/kg/injection, schedule: Q01DX005 (ip), vehicle: Klucel (hydroxypropylcellulose) (HPC) 119 % of control

C=CCNC(=S)N=Nc1c(O)[nH]c2ccccc12
inactive: [3] 94 % of control | [4] 91 % of control | dose: 200.0 mg/kg/injection, schedule: Q01DX009 (ip), vehicle: saline with Tween-80 88 % of control

CN1CCC(=C2c3ccccc3CC(O)c3sccc32)CC1 (stereo unspecified)
inactive: [5] 94 % of control | dose: 200.0 mg/kg/injection, schedule: Q04DX003 (ip), vehicle: saline with Tween-80 98 % of control

COC(=O)c1ccc(/C=C/C#N)cc1
inactive: [17] 100 % of control | dose: 100.0 mg/kg/injection, schedule: Q01DX009 (ip), vehicle: saline 102 % of control | dose: 200.0 mg/kg/injection, schedule: Q01DX009 (ip), vehicle: saline 97 % of control

N#CC(C#N)=C(C#N)c1ccccc1
inactive: [11] 90 % of control | [2] 113 % of control

COc1cc2c(cc1OC)C1C(C)c3ccc(OC)c(OC)c3CN1CC2 (stereo unspecified)
inactive: dose: 12.5 mg/kg/injection, schedule: Q01DX009 (ip), vehicle: saline 88 % of control | dose: 25.0 mg/kg/injection, schedule: Q01DX009 (ip), vehicle: saline 104 % of control | [17] 107 % of control | dose: 50.0 mg/kg/injection, schedule: Q04DX003 (ip), vehicle: distilled water + Tween-80 93 % of control | dose: 100.0 mg/kg/injection, schedule: Q04DX003 (ip), vehicle: distilled water + Tween-80 87 % of control | dose: 200.0 mg/kg/injection, schedule: Q04DX003 (ip), vehicle: distilled water + Tween-80 87 % of control | dose: 400.0 mg/kg/injection, schedule: Q01DX009 (ip), vehicle: saline 94 % of control | dose: 400.0 mg/kg/injection, schedule: Q04DX003 (ip), vehicle: distilled water + Tween-80 91 % of control

CC12CC[C]([Hg][I])(CC1)C2(C)C
inactive: [1] 105 % of control | [11] 112 % of control | [2] 107 % of control

Nc1nc2c(ncn2C2OC(CO)C(O)C2O)c(=O)o1 (stereo unspecified)
inactive: [12] 106 % of control | [13] 112 % of control | [14] 116 % of control | dose: 400.0 mg/kg/injection, schedule: Q01DX005 (ip), vehicle: Klucel (hydroxypropylcellulose) (HPC) 111 % of control

COc1cc(CC(O)c2cc(OC)c(OC)c(OC)c2)cc(OC)c1OC (stereo unspecified)
inactive: dose: 31.25 mg/kg/injection, schedule: Q01DX009 (ip), vehicle: saline + Tween-80 + alcohol 102 % of control | dose: 62.5 mg/kg/injection, schedule: Q01DX009 (ip), vehicle: saline + Tween-80 + alcohol 102 % of control | dose: 125.0 mg/kg/injection, schedule: Q01DX009 (ip), vehicle: saline + Tween-80 + alcohol 100 % of control | dose: 250.0 mg/kg/injection, schedule: Q01DX009 (ip), vehicle: saline + Tween-80 + alcohol 91 % of control

CC(C)(C)NC(=O)NS(=O)(=O)c1cccnc1Sc1ccccc1Cl
inactive: [9] 107 % of control | [10] 105 % of control | dose: 240.0 mg/kg/injection, schedule: Q01DX005 (ip), vehicle: Klucel (hydroxypropylcellulose) (HPC) 99 % of control

C1CN2CCCN3CCCN(C1)P23
inactive: dose: 100.0 mg/kg/injection, schedule: Q04DX002 (ip), vehicle: saline 115 % of control | dose: 200.0 mg/kg/injection, schedule: Q04DX002 (ip), vehicle: saline 98 % of control

CC(C(=O)O)c1ncnn1-c1ccccc1 (stereo unspecified)
inactive: dose: 60.0 mg/kg/injection, schedule: Q01DX005 (ip), vehicle: saline 105 % of control | dose: 120.0 mg/kg/injection, schedule: Q01DX005 (ip), vehicle: saline 104 % of control | dose: 240.0 mg/kg/injection, schedule: Q01DX005 (ip), vehicle: saline 102 % of control

CC(=O)OCC1OC(NC(=S)NCC(=O)c2ccccc2)C(OC(C)=O)C(OC(C)=O)C1OC(C)=O (stereo unspecified)
inactive: [6] 99 % of control | [7] 99 % of control | [8] 98 % of control

COc1ccc(/C=N/Nc2cc(C)nc3cc4c(cc23)OCO4)c2ccccc12
inactive: dose: 1.56 mg/kg/injection, schedule: Q01DX005 (ip), vehicle: Klucel (hydroxypropylcellulose) (HPC) 109 % of control | dose: 3.12 mg/kg/injection, schedule: Q01DX005 (ip), vehicle: Klucel (hydroxypropylcellulose) (HPC) 100 % of control | [15] 100 % of control and 102 % of control | [16] 110 % of control

COc1cc(C[C@H]2CC(=O)O[C@@H]2CO)cc(OC)c1OC
inactive: [18] 101 % of control | [19] 99 % of control | [20] 96 % of control

COC(=O)C1=C(C(=O)OC)C23C(=O)c4ccc(OC)c(OC)c4C1(OC)N2CCc1cc2c(cc13)OCO2 (stereo unspecified)
inactive: [18] 96 % of control | [19] 96 % of control | [20] 100 % of control
